From patent publication US11339130B1 (Blade Therapeutics, Inc., priority 2016, dated 2022)
pIC50: −log10 of the molar value. Read-outs that look alike come from different tables or passages of the source.

Legend:
Human Calpain 9/NS1 = molecular target: T1, Human Calpain 9/NS1 (Homo sapiens, UniProt O14815); assay: Calpain inhibition continuous fluorescence (FRET) assay, Human Calpain 9/NS1; format: biochemical; settings: read-out: Human Calpain 9/NS1 IC50
T1 sequence (O14815 1-690): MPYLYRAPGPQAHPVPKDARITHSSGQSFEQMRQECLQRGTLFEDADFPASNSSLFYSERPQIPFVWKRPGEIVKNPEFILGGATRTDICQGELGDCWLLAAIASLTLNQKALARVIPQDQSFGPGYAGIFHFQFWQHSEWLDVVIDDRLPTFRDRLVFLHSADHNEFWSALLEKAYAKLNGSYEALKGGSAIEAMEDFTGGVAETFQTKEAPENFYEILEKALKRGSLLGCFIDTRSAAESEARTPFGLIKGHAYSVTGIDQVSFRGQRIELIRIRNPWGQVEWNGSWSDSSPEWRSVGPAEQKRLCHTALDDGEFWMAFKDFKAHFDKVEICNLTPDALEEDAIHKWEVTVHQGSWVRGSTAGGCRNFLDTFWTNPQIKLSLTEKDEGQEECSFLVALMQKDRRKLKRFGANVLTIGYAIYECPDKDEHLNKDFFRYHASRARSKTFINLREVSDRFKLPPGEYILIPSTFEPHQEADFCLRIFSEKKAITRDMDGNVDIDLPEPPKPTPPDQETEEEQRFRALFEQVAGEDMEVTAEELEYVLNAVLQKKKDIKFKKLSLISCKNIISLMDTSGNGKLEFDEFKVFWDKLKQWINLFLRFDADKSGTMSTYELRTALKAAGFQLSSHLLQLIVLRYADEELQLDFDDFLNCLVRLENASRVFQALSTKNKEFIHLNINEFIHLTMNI
T1 sequence (P04632 1-268 partner): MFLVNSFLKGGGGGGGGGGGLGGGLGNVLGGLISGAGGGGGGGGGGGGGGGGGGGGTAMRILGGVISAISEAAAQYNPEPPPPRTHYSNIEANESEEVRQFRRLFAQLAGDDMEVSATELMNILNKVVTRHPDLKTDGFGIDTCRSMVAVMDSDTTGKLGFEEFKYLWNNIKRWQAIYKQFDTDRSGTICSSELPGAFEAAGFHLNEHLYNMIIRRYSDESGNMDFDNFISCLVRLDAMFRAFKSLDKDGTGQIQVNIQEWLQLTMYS
How it was run: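 Buffer 50 mM Tris pH 7.5/100 mM NaCl/1 mM DTT; enzyme + cpd preinc 25C; start w/ FRET substrate + CaCl2; kinetic 490/520 nm, 10 min; slopes 1-5 min; 4-PL IC50.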

[1] = tested on: Calpain activity in SH-SY5Y cells; assay: SH-SY5Y + AMC fluorescence assay (Suc-LLVY-AMC substrate); format: cell-based; settings: read-out: SH-SY5Y + AMC IC50
[2] = tested on: Bleomycin-induced pulmonary fibrosis; assay: Bleomycin-induced pulmonary fibrosis in mice (14 d); format: in vivo; parameters: concentration or dose not given beside the values
Excerpt: The method for inducing pulmonary fibrosis in mice is described in Current Protocols in Pharmacology: 5.46.1, entitled “Mouse Models of Bleomycin-induced Pulmonary Fibrosis”. In order to induce pulmonary fibrosis, 6-8 week old C57B1/6 mice or Wistar rats are instilled once oropharyngeally with ˜1.5 U/kg of bleomycin sulfate (Calbiochem, Billerica, Mass.). Briefly, for oropharyngeal administration of bleomycin, mice or rats are anesthetized with isofluorane and then suspended on its back at a˜60 degree angle on an inclined surface with a rubber band running under the upper incisors. The airway is opened while securing the tongue with one arm of padded forceps and bleomycin is administered into the back of the oral cavity with a syringe. The animal's tongue and mouth were held open until the liquid disappeared from the oral cavity. The animal was then returned to its cage and monitored until fully recovered from the anesthesia. The study is terminated on day 14-28 for oropharyngeally administered bleomycin in mice and rats. All animals are euthanized at the termination of the studies by cervical dislocation for gross necropsy, and blood collected by cardiac puncture. The lungs from each animal are dissected from the animal and weighed. The BAL cells and fluid are collected by lavaging the lung twice with 0.5 ml Hanks Balanced Salt Solution (HBSS; VWR, Radnor, Pa.). After collection of BAL cells and fluid, lungs are dissected and removed from each animal. Whole lungs are inflated with 10% NBF and then fixed in 10% NBF for histology. Severity of fibrosis in the lungs is evaluated using a modified Ashcroft score (Hubner, Biotechniques, 2008) and subjective fibrosis scores. Lung sections were graded by averaging 5 microscopic fields at 20× on an Ashcroft scale as follows: Grade 0=normal lung; Grade 1=minimally detectable thickening of alveolar walls; Grade 2=Mild thickening of alveolar walls. Grade 3=moderate contiguous thickening of walls with fibrous nodules; Grade 4=Thickened septae and confluent fibrotic masses that total less than 10% of microscopic field. Grade 5=increased fibrosis with definite damage to lung structure and formation of fibrous bands or small fibrous masses between 10 and 50% of microscopic field; Grade 6=Large contiguous fibrotic masses consolidating more than 50% of microscopic field. Grade 7=severe distortion of structure and large fibrous areas; Grade 8=total fibrous obliteration of lung within microscopic field. Each slide was examined at 20× magnification and the score for 5 separate representative fields was averaged for each animal. Subjective scores (H&E and Trichrome-stained slides) were evaluated at 2× magnification for an overall assessment of pathologic change. A score of 0=no detectible findings to 5=complete involvement of consolidation. Scores in each group were averaged and standard error was calculated using Excel 2010. Dense, organized inflammatory exudates were scored as fibrosis. Other tissues were evaluated microscopically and scored routinely.

Question: `NC(=O)C(=O)[C@H](Cc1ccccc1)NC(=O)c1snnc1-c1ccccc1` [Compound 44, (S)—N-(4-amino-3,4-dioxo-1-phenylbutan-2-yl)-4-phenyl-1,2,3-thiadiazole-5-carboxamide] was tested. Which pIC50 (Human Calpain 9/NS1; Column C) did it give?
Answer: Its pIC50 is > 5.52.

Question: What about the pIC50 ([1]; Column E) of the same compound?
Answer: Its pIC50 is < 4.60.

Question: For `Cc1nc(-c2ccccc2F)c(C(=O)NC(Cc2ccccc2)C(=O)C(N)=O)o1` (stereo not shown) [Compound 405, N-(4-amino-3,4-dioxo-1-phenylbutan-2-yl)-4-(2-fluorophenyl)-2-methyloxazole-5-carboxamide], which “% reduction compared to vehicle” value [2] is on record?
Answer: The value was −33%.

Question: And the pIC50 (Human Calpain 9/NS1)?
Answer: Its pIC50 is > 5.52.

Question: `Cc1cc(C(=O)NC(Cc2ccccc2)C(=O)C(N)=O)n(-c2ccccn2)n1` (stereo not shown) [Compound 495, N-(4-amino-3,4-dioxo-1-phenylbutan-2-yl)-3-methyl-1-(pyridin-2-yl)-1H-pyrazole-5-carboxamide] was tested. Which “% reduction compared to vehicle” value [2] did it give?
Answer: The value was −27%.

Question: And the pIC50 (Human Calpain 9/NS1)?
Answer: The pIC50 was > 5.52.

Question: And the pIC50 [1]?
Answer: The pIC50 was > 5.00.

Question: For `NC(=O)C(=O)[C@H](Cc1ccccc1)NC(=O)c1cnoc1-c1ccccc1` [Compound 60, (S)—N-(4-amino-3,4-dioxo-1-phenylbutan-2-yl)-5-phenylisoxazole-4-carboxamide], which “% reduction compared to vehicle” value [2] is on record?
Answer: Its value is −24%.

Question: What about the pIC50 (Human Calpain 9/NS1; Column C) of the same compound?
Answer: The pIC50 was > 5.52.

Question: What about the pIC50 ([1]; Column E) of the same compound?
Answer: Its pIC50 is > 5.00.

Question: Which results are given for `Cc1nc(-c2ccccc2)c(C(=O)NC(Cc2ccccc2)C(=O)C(N)=O)o1` (stereo not shown) [Compound 357, N-(4-amino-3,4-dioxo-1-phenylbutan-2-yl)-2-methyl-4-phenyloxazole-5-carboxamide]?
Answer: % reduction compared to vehicle [2]: −13%; pIC50 (Human Calpain 9/NS1): > 5.52; pIC50 [1]: > 5.00

Question: How did the “% reduction compared to vehicle” value [2] turn out when `NC(=O)C(=O)C(Cc1ccccc1)NC(=O)c1cn(C(F)F)nc1-c1ccccc1` (stereo not shown) [Compound 403, N-(4-amino-3,4-dioxo-1-phenylbutan-2-yl)-1-(difluoromethyl)-3-phenyl-1H-pyrazole-4-carboxamide] was run?
Answer: Its value is −29%.

Question: What about the pIC50 (Human Calpain 9/NS1) of the same compound?
Answer: Its pIC50 is > 5.52.

Question: What about the pIC50 [1] of the same compound?
Answer: Its pIC50 is > 5.00.

Question: `NC(=O)C(=O)C(Cc1ccccc1)NC(=O)c1cn(C2CC2)nc1-c1ccccc1` (stereo not shown) [Compound 406, N-(4-amino-3,4-dioxo-1-phenylbutan-2-yl)-1-cyclopropyl-3-phenyl-1H-pyrazole-4-carboxamide] was tested. Which “% reduction compared to vehicle” value [2] did it give?
Answer: The value was −25%.

Question: What about the pIC50 (Human Calpain 9/NS1) of the same compound?
Answer: The pIC50 was > 5.52.

Question: What about the pIC50 [1] of the same compound?
Answer: The pIC50 was > 5.00.

Question: Which results are given for `CCCC[C@H](NC(=O)c1oc(C)nc1-c1ccccc1)C(=O)C(N)=O` [Compound 265, (S)—N-(1-amino-1,2-dioxoheptan-3-yl)-2-methyl-4-phenyloxazole-5-carboxamide]?
Answer: pIC50 (Human Calpain 9/NS1; Column C): > 5.52; pIC50 ([1]; Column E): < 4.60

Question: What does the source list for `NC(=O)C(=O)[C@H](Cc1ccccc1)NC(=O)c1cn(C2CC2)nc1-c1ccccc1` [Compound 250, (S)—N-(4-amino-3,4-dioxo-1-phenylbutan-2-yl)-1-cyclopropyl-3-phenyl-1H-pyrazole-4-carboxamide]?
Answer: pIC50 (Human Calpain 9/NS1; Column C): > 5.52; pIC50 ([1]; Column E): 4.60 to 5.00

Question: For `Cl.Cn1cc(C(=O)NC(Cc2ccccc2)C(=O)C(N)=O)c(-c2cccc(F)c2)n1` (stereo not shown) [Compound 485, N-(4-amino-3,4-dioxo-1-phenylbutan-2-yl)-3-(3-fluorophenyl)-1-methyl-1H-pyrazole-4-carboxamide hydrochloride], which “% reduction compared to vehicle” value [2] is on record?
Answer: Its value is −41%.

Question: And the pIC50 (Human Calpain 9/NS1)?
Answer: Its pIC50 is > 5.52.

Question: What about the pIC50 [1] of the same compound?
Answer: The pIC50 was 4.60 to 5.00.

Question: What does the source list for `NC(=O)C(=O)[C@H](Cc1ccccc1)NC(=O)c1nsnc1-c1ccccc1` [Compound 72, (S)—N-(4-amino-3,4-dioxo-1-phenylbutan-2-yl)-4-phenyl-1,2,5-thiadiazole-3-carboxamide]?
Answer: % reduction compared to vehicle [2]: −35%; pIC50 (Human Calpain 9/NS1; Column C): > 5.52; pIC50 ([1]; Column E): > 5.00

Question: Which results are given for `Cn1cc(C(=O)NC(Cc2ccccc2)C(=O)C(N)=O)c(-c2ccccc2F)n1` (stereo not shown) [Compound 484, N-(4-amino-3,4-dioxo-1-phenylbutan-2-yl)-3-(2-fluorophenyl)-1-methyl-1H-pyrazole-4-carboxamide]?
Answer: % reduction compared to vehicle [2]: −35%; pIC50 (Human Calpain 9/NS1): > 5.52; pIC50 [1]: > 5.00

Question: What does the source list for `Cn1cc(C(=O)N[C@@H](Cc2ccccc2)C(=O)C(N)=O)c(-c2ccccc2)n1` [Compound 32, (S)—N-(4-amino-3,4-dioxo-1-phenylbutan-2-yl)-1-methyl-3-phenyl-1H-pyrazole-4-carboxamide]?
Answer: pIC50 (Human Calpain 9/NS1; Column C): > 5.52; pIC50 ([1]; Column E): < 4.60

Question: `Cc1nc(-c2cccc(F)c2)c(C(=O)NC(Cc2ccccc2)C(=O)C(N)=O)o1` (stereo not shown) [Compound 404, N-(4-amino-3,4-dioxo-1-phenylbutan-2-yl)-4-(3-fluorophenyl)-2-methyloxazole-5-carboxamide] was tested. Which “% reduction compared to vehicle” value [2] did it give?
Answer: The value was −24%.

Question: What about the pIC50 (Human Calpain 9/NS1) of the same compound?
Answer: The pIC50 was > 5.52.

Question: What about the pIC50 [1] of the same compound?
Answer: Its pIC50 is > 5.00.
